Reference: patent US20080287531A1, “Preventive and/or Therapeutic Agent for Sleeping Disorder” (Kyowa Hakko Co., Ltd., priority 2004, published 2008)
Values joined by “and” are separate entries in the source; they are usually repeats but may differ in a detail not shown here. Equal values may be shown once. “Also recorded” adds a separate entry of the source. Where a name gives a salt, the structure may show the parent alone.

Assays:
[1] = system: nasal congestion of allergic rhinitis; conditions: Phase III test, Non-patent Document 7; cited from earlier work
[2] = system: nasal congestion reaction; conditions: guinea pigs, experimental allergic rhinitis model, Non-patent Document 8; cited from earlier work
[3] = system: patients with sleep apnea syndrome / sleeping disorder; experiment: Polysonography (PSG) before and after administration of olopatadine hydrochloride; format: in vivo, human; conditions: for AI After therapy: apnea index by PSG; for AHI After therapy: apnea-hypopnea index by PSG; for Arousals Index After therapy: arousals index per hour by PSG
Protocol: (§1) Olopatadine hydrochloride was orally administered at a dose of 10 mg/day [a 5-mg tablet of Allelock (registered trademark: Kyowa Hakko Kogyo Co., Ltd.) was administered everyday, twice a day, with one tablet for each administration] to three patients (patient Nos. 1 to 3) with sleep apnea syndrome complicated by allergic rhinitis and seven patients (patient Nos. 4 to 10) with sleeping disorder which is not complicated by allergic rhinitis including four patients (patient Nos. 4 to 6 and 8) with sleep apnea syndrome which is not complicated by allergic rhinitis. Before and after the administration of olopatadine hydrochloride, an apnea-hypopnea index (AHI), an apnea index (AI) and an arousals index per hour were measured respectively by polysonography (PSG) for each patient. Further, before and after the administration of olopatadine hydrochloride, a test for daytime Epworth sleepness scale was performed according to the following.
The presence or absence of allergic rhinitis was confirmed by performing RAST (radioallergosorbent test) for 12 types of antigens [house dust, Dermatophagoides pteronyssinus, Japanese cedar, Hinoki cypress, Japanese alder, ragweed, mugwort, goldenrod, Cocksfoot (Dactylis glomerata), Candida albicans, mold and animal epithelium].
The patients uncomplicated by allergic rhinitis had airway obstruction caused by non-atopic rhinitis.

[4] = system: patients with sleep apnea syndrome / sleeping disorder; experiment: Daytime Epworth sleepness scale (ESS) test; format: in vivo, human; conditions: total of 8 conditions, 10 points or less is normal, oral 10 mg/day
Protocol: as §1
In the following conditions 1 to 8, sleepiness was determined according to the next four levels, and seriousness of daytime sleepiness was evaluated by the total (ESS) of the points. A case in which ESS is 10 points or less is evaluated as normal.
2 points=sometimes sleeps
1. when sitting and reading a book
2. when watching television
3. when sitting in a public place without movement (for example, in a theater or a conference room) […]

[5] = system: patients with sleep apnea syndrome / sleeping disorder; experiment: Estimation of effect on chief-complaint symptoms (snore, apnea, daytime sleepiness); format: in vivo, human; conditions: for Estimation of effect: oral 10 mg/day
Protocol: as §1
The effect of the agent was estimated according to the following standard.
Incidentally, as objective assessment, improved conditions in values of AHI, AI, arousals index and ESS were used for reference.

[6] = oral 10 mg/day, 74-160 days, one line per patient (Nos. 4-10), sleeping disorder not complicated by allergic rhinitis
[7] = oral 10 mg/day, 160-342 days, one line per patient (Nos. 1-3), sleep apnea syndrome complicated by allergic rhinitis

SMILES | Effect on nasal congestion of allergic rhinitis [1] | Action on nasal congestion reaction [2] | AI After therapy [3, 6] | AI After therapy [3, 7] | AHI After therapy ([3]; oral 10 mg/day (5-mg tablet twice a day), 160-342 days, one line per patient (Nos. 1-3), sleep apnea syndrome complicated by allergic rhinitis) | AHI After therapy [3, 6] | Arousals Index After therapy [3, 6] | Arousals Index After therapy [3, 7] | ESS After therapy ([4]; 74-160 days, one line per patient (Nos. 4-10), not complicated by allergic rhinitis) | ESS After therapy ([4]; 160-342 days, one line per patient (Nos. 1-3), complicated by allergic rhinitis) | Estimation of effect ([5]; 74-160 days, one line per patient (Nos. 4-10), sleeping disorder not complicated by allergic rhinitis) | Estimation of effect ([5]; 160-342 days, one line per patient (Nos. 1-3), sleep apnea syndrome complicated by allergic rhinitis) | Clinical effect on symptoms of sleeping disorder ([5]; patients with sleep apnea syndrome complicated by allergic rhinitis, snore, apnea, hypopnea, arousals, daytime sleepiness) | Clinical effect on symptoms of sleeping disorder ([5]; patients with sleeping disorder not complicated by allergic rhinitis, snore, apnea, hypopnea, arousals, daytime sleepiness, morning headache) | Clinical effect on symptoms of sleeping disorder ([5]; regardless of the presence or absence of complication by allergic rhinitis)
CN(C)CC/C=C1/c2ccccc2COc2ccc(CC(=O)O)cc21 [compound 1, (Z)-11-(3-dimethylaminopropylidene)-6,11-dihydrodibenzo[b,e]oxepine-2-acetic acid] | highly improve the nasal congestion of allergic rhinitis | inhibitory action on a nasal congestion reaction | – | – | – | – | – | – | – | – | – | – | – | – | –
CN(C)CC/C=C1/c2ccccc2COc2ccc(CC(=O)O)cc21 [olopatadine hydrochloride] | – | – | 3.4 and 1.2 and 3.1 and 0.8 (2×) and 0.4 and 2.8 | 4.3 and 1.5 and 7.6 | 5.8 and 2.7 and 11.1 | 4.2 and 2.6 and 4.5 and 1.3 and 0.9 and 1.8 and 3.4 | 5.9 and 2.6 and 5.3 and 2.3 and 1.8 and 2.1 and 4.9 | 10.3 and 4.4 and 18.9 | 11 points and 10 points (2×) and 8 points and 9 points (2×) and 12 points | 12 points and 11 points and 9 points | Improved; also recorded: Markedly | Improved; also recorded: Markedly | improves symptoms of sleeping disorder | improves symptoms of sleeping disorder | improves symptoms of sleeping disorder
